According to patent US6737383B1, “Herbicidal oxadiazolidines” (priority 1999, dated 2004):

Assays:
morningglory = test: Test B pre/postemergence morningglory; format: in vivo, Ipomoea hederacea; conditions: for Morningglory plant response rating: scale of 0 to 10 where 0 is no effect and 10 is complete control
Method in brief: (§1)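 Herbicidal effect was estimated by eye on a ten-point control scale after plants spent twelve to sixteen days in a greenhouse following soil or foliar treatment. Foliar sprays targeted plants at one to four leaves; all doses were formulated in a non-phytotoxic solvent with surfactant.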

rape = test: Test B pre/postemergence rape; format: in vivo, Brassica napus; conditions: for Rape plant response rating: scale of 0 to 10 where 0 is no effect and 10 is complete control
Method in brief: as §1

wheat = test: Test B pre/postemergence wheat; format: in vivo, Triticum aestivum; conditions: for Wheat plant response rating: scale of 0 to 10 where 0 is no effect and 10 is complete control
Method in brief: as §1

duck salad = test: Test B flood test duck salad; format: in vivo, Heteranthera limosa
Method in brief: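 Read-out is a visual response score from 0 (no effect) to 10 (complete control), assigned by comparison with untreated controls. Treatment was applied at the 2-leaf stage, and plants stayed in the greenhouse for twelve to sixteen days before scoring.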

winter wheat [1] = test: Test E winter wheat; format: in vivo, Triticum aestivum; conditions: Postemergence
Method in brief: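 Visual evaluation versus untreated controls after about 21 to 28 days in the greenhouse. Compound was in a surfactant-containing non-phytotoxic solvent; postemergence plants were treated at the 1- to 4-leaf stage, grown in a 60:40 sandy loam and potting mix blend.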

blackgrass = test: Test E blackgrass; format: in vivo, Alopecurus myosuroides; conditions: Preemergence
green foxtail = test: Test E green foxtail; format: in vivo, Setaria viridis; conditions: Preemergence
Italian ryegrass = test: Test E Italian ryegrass; format: in vivo, Lolium multiflorum; conditions: Preemergence
winter wheat [2] = test: Test E winter wheat; format: in vivo, Triticum aestivum; conditions: Preemergence
wild oat = test: Test E wild oat; format: in vivo, Avena fatua; conditions: Preemergence
winter barley = test: Test E winter barley; format: in vivo, Hordeum vulgare; conditions: Preemergence
[3] = Postemergence, Rate 125 g/ha, scale 0 to 10, 0 is no effect, 10 is complete control
[4] = Preemergence, Rate 62 g/ha, scale 0 to 10 (0 no effect, 10 complete control)
[5] = Rate 500 g/ha, Postemergence, scale 0 to 10, 0 no effect, 10 complete control
[6] = Postemergence (flood test), Rate 125 g/ha, scale 0 to 10, 0 is no effect, 10 is complete control
[7] = Rate 62 g/ha, Postemergence (flood test species), scale of 0 to 10 where 0 is no effect and 10 is complete control
[8] = Rate 62 g/ha, flood test species, Pre-emergence, visual evaluation after twelve to sixteen days
[9] = Rate 125 g/ha, Pre-emergence, flood test species, scale 0 to 10 where 0 is no effect and 10 is complete control
[10] = Rate 250 g/ha, Pre-emergence, flood-test species, scale 0 to 10, 0 is no effect, 10 is complete control
[11] = Rate 500 g/ha, listed under Postemergence (flood test species), scale 0 to 10, 0 no effect, 10 complete control
[12] = Rate 500 g/ha, Pre-emergence, flood test species, scale 0 to 10 (0 no effect, 10 complete control)
[13] = Rate 125 g/ha, 0 to 100 scale, 0 is no effect, 100 is complete control
[14] = Rate 250 g/ha, 0 to 100 scale, 0 is no effect, 100 is complete control
[15] = Rate 500 g/ha, 0 to 100 scale, 0 is no effect, 100 is complete control
[16] = Rate 125 g/ha, 0 to 100 scale (0 no effect, 100 complete control)
[17] = Rate 500 g/ha, 0 to 100 scale (0 no effect, 100 complete control)
[18] = Rate 250 g/ha, 0 to 100 scale, 0 no effect, 100 complete control
[19] = Postemergence, Rate 250 g/ha, scale 0 to 10, 0 is no effect, 10 is complete control
[20] = Rate 1000 g/ha, 0 to 100 scale, 0 no effect, 100 complete control

CCC(CC)n1c(=O)on(C(=O)N(c2ccccc2)C(C)C)c1=O [Compound 354]
8: Plant response rating, Morningglory (morningglory; [5])
60: Plant response rating, I. Ryegrass (Italian ryegrass; Rate 250 g/ha, 0 to 100 scale) | Plant response rating, Wheat (winter) (winter wheat [2]; [17])
20: Plant response rating, Barley (winter) (winter barley; [16])
30: Plant response rating, Wheat (winter) (winter wheat [1]; [13]) | Plant response rating, Blackgrass (blackgrass; [17]) | Plant response rating, Wheat (winter) (winter wheat [2]; [16]) | Plant response rating, Wild oat (wild oat; Rate 250 g/ha, 0 to 100 scale) | Plant response rating, Barley (winter) (winter barley; [18])
50: Plant response rating, Wheat (winter) (winter wheat [1]; [15]) | Plant response rating, Blackgrass (blackgrass; [16]) | Plant response rating, I. Ryegrass (Italian ryegrass; [16]) | Plant response rating, Wheat (winter) (winter wheat [2]; Rate 250 g/ha, 0 to 100 scale)
85: Plant response rating, Green foxtail (green foxtail; [16])
55: Plant response rating, Blackgrass (blackgrass; Rate 250 g/ha, 0 to 100 scale)
100: Plant response rating, Green foxtail (green foxtail; [17])
0: Plant response rating, Morningglory (morningglory; [4]) | Morningglory plant response rating (0 to 10 scale) (morningglory; Preemergence, Rate 125 g/ha) | Morningglory plant response rating (morningglory; Preemergence, Rate 250 g/ha) | Morningglory plant response rating (morningglory; Preemergence, Rate 500 g/ha) | Morningglory plant response rating (morningglory; Rate 62 g/ha, Postemergence) | Plant response rating, Rape (rape; [3]) | Plant response rating, Rape (rape; [4]) | Rape plant response rating (rape; Rate 62 g/ha, Postemergence) | Plant response rating, Wheat (wheat; [3]) | Plant response rating, Wheat (wheat; [4]) | Wheat plant response rating (0 to 10 scale) (wheat; Preemergence, Rate 125 g/ha) | Wheat plant response rating (wheat; Preemergence, Rate 250 g/ha) | Wheat plant response rating (wheat; Rate 62 g/ha, Postemergence) | Plant response rating, Wheat (wheat; [5]) | Ducksalad plant response rating (duck salad; [7]) | Plant response rating, Ducksalad (0 to 10 scale, 0 is no effect, 10 is complete control) (duck salad; [8]) | Ducksalad plant response rating (duck salad; [9]) | Ducksalad plant response rating (duck salad; [10]) | Ducksalad plant response rating (duck salad; [12]) | Plant response rating, Wild oat (wild oat; [16])
4: Plant response rating, Rape (rape; [5])
80: Plant response rating, Green foxtail (green foxtail; Rate 250 g/ha, 0 to 100 scale)
3: Plant response rating, Ducksalad (duck salad; [6])
5: Plant response rating, Morningglory (morningglory; [3]) | Rape plant response rating (rape; Preemergence, Rate 250 g/ha) | Rape plant response rating (rape; Preemergence, Rate 500 g/ha) | Plant response rating, Ducksalad (duck salad; [11])
2: Wheat plant response rating (wheat; Preemergence, Rate 500 g/ha)
90: Plant response rating, I. Ryegrass (Italian ryegrass; [17])
40: Plant response rating, Wheat (winter) (winter wheat [1]; [14]) | Plant response rating, Wild oat (wild oat; [17]) | Plant response rating, Barley (winter) (winter barley; [17])
1: Rape plant response rating (0 to 10 scale) (rape; Preemergence, Rate 125 g/ha)

CC1CC1n1c(=O)on(C(=O)N(c2ccc(Cl)cc2)C(C)C)c1=O (stereo not drawn) [Compound 369]
50: Plant response rating, Green foxtail (green foxtail; Rate 250 g/ha, 0 to 100 scale) | Plant response rating, I. Ryegrass (Italian ryegrass; Rate 250 g/ha, 0 to 100 scale) | Plant response rating, Barley (winter) (winter barley; [17])
100: Plant response rating, Blackgrass (blackgrass; [20]) | Plant response rating, Green foxtail (green foxtail; [20])
65: Plant response rating, I. Ryegrass (Italian ryegrass; [17]) | Plant response rating, Wild oat (wild oat; Rate 250 g/ha, 0 to 100 scale)
75: Plant response rating, Wild oat (wild oat; [20])
5: Rape plant response rating (rape; Preemergence, Rate 500 g/ha)
2: Rape plant response rating (rape; Preemergence, Rate 250 g/ha) | Plant response rating, Ducksalad (duck salad; [11]) | Plant response rating, Ducksalad (duck salad; flood test species, listed under Postemergence, Rate 250 g/ha, scale 0 to 10, 0 is no effect, 10 is complete control)
0: Plant response rating, Morningglory (morningglory; [4]) | Morningglory plant response rating (0 to 10 scale) (morningglory; Preemergence, Rate 125 g/ha) | Morningglory plant response rating (morningglory; Preemergence, Rate 250 g/ha) | Morningglory plant response rating (morningglory; Preemergence, Rate 500 g/ha) | Plant response rating, Rape (rape; [3]) | Plant response rating, Rape (rape; [19]) | Plant response rating, Rape (rape; [4]) | Rape plant response rating (0 to 10 scale) (rape; Preemergence, Rate 125 g/ha) | Rape plant response rating (rape; Rate 62 g/ha, Postemergence) | Plant response rating, Wheat (wheat; [3]) | Plant response rating, Wheat (wheat; [19]) | Plant response rating, Wheat (wheat; [4]) | Wheat plant response rating (0 to 10 scale) (wheat; Preemergence, Rate 125 g/ha) | Wheat plant response rating (wheat; Preemergence, Rate 250 g/ha) | Wheat plant response rating (wheat; Preemergence, Rate 500 g/ha) | Wheat plant response rating (wheat; Rate 62 g/ha, Postemergence) | Plant response rating, Ducksalad (duck salad; [6]) | Ducksalad plant response rating (duck salad; [7]) | Plant response rating, Ducksalad (0 to 10 scale, 0 is no effect, 10 is complete control) (duck salad; [8]) | Ducksalad plant response rating (duck salad; [9]) | Ducksalad plant response rating (duck salad; [10]) | Ducksalad plant response rating (duck salad; [12])
4: Plant response rating, Wheat (wheat; [5])
7: Morningglory plant response rating (morningglory; Rate 62 g/ha, Postemergence)
3: Plant response rating, Rape (rape; [5])
85: Plant response rating, Blackgrass (blackgrass; Rate 250 g/ha, 0 to 100 scale) | Plant response rating, Green foxtail (green foxtail; [17])
55: Plant response rating, Wheat (winter) (winter wheat [2]; [17])
70: Plant response rating, Wheat (winter) (winter wheat [1]; Rate 1000 g/ha, 0 to 100 scale where 0 is no effect and 100 is complete control) | Plant response rating, Wheat (winter) (winter wheat [1]; [15]) | Plant response rating, Blackgrass (blackgrass; [17]) | Plant response rating, I. Ryegrass (Italian ryegrass; [20]) | Plant response rating, Wheat (winter) (winter wheat [2]; [20]) | Plant response rating, Wild oat (wild oat; [17]) | Plant response rating, Barley (winter) (winter barley; [18])
10: Plant response rating, Morningglory (morningglory; [3]) | Plant response rating, Morningglory (morningglory; [19]) | Plant response rating, Morningglory (morningglory; [5])
60: Plant response rating, Wheat (winter) (winter wheat [1]; [14]) | Plant response rating, Wheat (winter) (winter wheat [2]; Rate 250 g/ha, 0 to 100 scale) | Plant response rating, Barley (winter) (winter barley; [20])

CC(C)N(C(=O)n1oc(=O)n(CCC#N)c1=O)c1ccc(F)cc1 [Compound 388]
40: Plant response rating, Blackgrass (blackgrass; [17]) | Plant response rating, Green foxtail (green foxtail; Rate 250 g/ha, 0 to 100 scale) | Plant response rating, I. Ryegrass (Italian ryegrass; Rate 250 g/ha, 0 to 100 scale)
20: Plant response rating, Wild oat (wild oat; Rate 125 g/ha, 0 to 100 scale) | Plant response rating, Wild oat (wild oat; Rate 250 g/ha, 0 to 100 scale) | Plant response rating, Barley (winter) (winter barley; [18])
5: Morningglory plant response rating (morningglory; Postemergence, Rate 500 g/ha)
70: Plant response rating, Barley (winter) (winter barley; [17])
65: Plant response rating, Wheat (winter) (winter wheat [1]; [15])
50: Plant response rating, Wheat (winter) (winter wheat [2]; Rate 125 g/ha, 0 to 100 scale) | Plant response rating, Wheat (winter) (winter wheat [2]; Rate 250 g/ha, 0 to 100 scale)
10: Plant response rating, Barley (winter) (winter barley; [16])
2: Rape plant response rating (rape; Preemergence, Rate 250 g/ha) | Wheat plant response rating (0 to 10 scale) (wheat; Preemergence, Rate 125 g/ha)
60: Plant response rating, I. Ryegrass (Italian ryegrass; [17]) | Plant response rating, Wheat (winter) (winter wheat [2]; [17])
8: Rape plant response rating (rape; Preemergence, Rate 500 g/ha) | Wheat plant response rating (wheat; Postemergence, Rate 500 g/ha) | Wheat plant response rating (wheat; Preemergence, Rate 500 g/ha)
4: Plant response rating, Morningglory (morningglory; [19]) | Wheat plant response rating (wheat; Preemergence, Rate 250 g/ha)
0: Plant response rating, Morningglory (morningglory; [4]) | Morningglory plant response rating (0 to 10 scale) (morningglory; Preemergence, Rate 125 g/ha) | Morningglory plant response rating (morningglory; Preemergence, Rate 250 g/ha) | Morningglory plant response rating (morningglory; Preemergence, Rate 500 g/ha) | Plant response rating, Rape (rape; [3]) | Rape plant response rating (rape; Postemergence, Rate 500 g/ha) | Plant response rating, Rape (rape; [4]) | Rape plant response rating (0 to 10 scale) (rape; Preemergence, Rate 125 g/ha) | Rape plant response rating (rape; Rate 62 g/ha, Postemergence) | Plant response rating, Wheat (wheat; [3]) | Plant response rating, Wheat (wheat; [4]) | Wheat plant response rating (wheat; Rate 62 g/ha, Postemergence) | Plant response rating, Ducksalad (0 to 10 scale, 0 is no effect, 10 is complete control) (duck salad; [8]) | Ducksalad plant response rating (0 to 10 scale, 0 is no effect, 10 is complete control) (duck salad; Rate 125 g/ha, under heading Pre-emergence, flood test species, visual evaluation after twelve to sixteen days) | Ducksalad plant response rating (duck salad; [10]) | Ducksalad plant response rating (duck salad; [12]) | Plant response rating, Blackgrass (blackgrass; Rate 125 g/ha, 0 to 100 scale) | Plant response rating, Blackgrass (blackgrass; Rate 250 g/ha, 0 to 100 scale)
30: Plant response rating, Wheat (winter) (winter wheat [1]; [13]) | Plant response rating, Wheat (winter) (winter wheat [1]; [14]) | Plant response rating, Green foxtail (green foxtail; Rate 125 g/ha, 0 to 100 scale) | Plant response rating, I. Ryegrass (Italian ryegrass; Rate 125 g/ha, 0 to 100 scale) | Plant response rating, Wild oat (wild oat; [17])
1: Morningglory plant response rating (morningglory; Rate 62 g/ha, Postemergence)
3: Plant response rating, Morningglory (morningglory; [3]) | Plant response rating, Wheat (wheat; [19])
85: Plant response rating, Green foxtail (green foxtail; [17])
